Legend:
[1] = target: full-length human recombinant IDO1 protein (Homo sapiens (Human), UniProt P14902); assay: IDO enzyme activity inhibition testing (Ehrlich method); type: biochemical; conditions: OD490, 10 concentration points
Procedure: IDO Enzyme Activity Inhibition Testing
The effects of the compounds of the invention on the activity of indoleamine 2,3-dioxygenase (IDO) were evaluated by the Ehrlich method.
The experimental principle is summarized as follows: IDO1 catalyzes oxidation of tryptophan to form N-formyl kynurenine, N-formyl kynurenine is subsequently hydrolyzed by trichloroacetic acid to form kynurenine, and kynurenine further reacts with the Ehrlich reagent to make the solution yellow. The absorbance at 490 nm (OD490) is directly proportional to the activity of IDO1.
The experimental methods are summarized as follows:
The reaction buffer was 50 mM 2-(N-morpholine)ethanesulfonic acid-hydrate (Sigma, Cat. No. 69889); the full-length human recombinant IDO1 protein was purchased from the Tsinghua Protein Research Technology Center and diluted to a 33.6 ng/μL enzyme solution with the reaction buffer; the substrate solution was prepared with the reaction buffer containing 20 mM vitamin C (Sigma, Cat. No. A5960), 150 μM L-tryptophan (Sigma, Cat. No. T0254), 2250 UI/mL catalase (Sigma, Cat. No. C30), and 10 μM methylene blue (Sigma, Cat. No. 28514); the reaction termination solution was 30% (mass/volume) trichloroacetic acid (Sigma, Cat. No. T9159) aqueous solution; the Ehrlich reagent was 2% p-dimethylaminobenzaldehyde (Sigma, Cat. No. 156477) acetic acid (Macklin, Cat. No. A801295) solution.
A compound was dissolved in DMSO (Sigma, Cat. No. D5879) and diluted to 1 mM, then serially diluted 3-fold with DMSO to a minimum concentration of 50.8 nM, and each concentration was further diluted 25-fold with the reaction buffer. If a compound's IC50 value was very low, the initial concentration of the compound was decreased.
A 10-μL compound solution and a 10-μL enzyme solution were added to a 96-well plate (Sigma, Cat. No. CLS3695), mixed well and incubated at room temperature. After 15 min, a 20-μL substrate solution was added and incubated at 60° C. after mixing for 30 min. The reaction plate was equilibrated to room temperature and 60 μL of the Ehrlich reagent was added. After incubation for 15 min, OD490 of each well was measured.
In this experiment, OD490 without enzyme was referred as OD490100% inhibition, and OD490 with enzyme added but without compound was referred as OD4900% inhibition.
(§1) Where Y is the percentage of inhibition, Bottom is the bottom platform value of the S-curve, Top is the top platform value of the S-curve, X is the logarithm of the concentration of the test compound, and slope factor is the slope coefficient of the curve.

[2] = target: indoleamine 2,3-dioxygenase (IDO) in Hela cells (Homo sapiens (Human), UniProt P14902); assay: IDO intracellular activity inhibition testing in Hela cells induced by IFN-γ (Ehrlich method); type: cell-based; conditions: 24 hours, OD490, 8 concentration points
Procedure: IDO Intracellular Activity Inhibition Testing
The effects of the compounds of the invention on the activity of indoleamine 2,3-dioxygenase (IDO) in Hela cells induced by IFN-γ were evaluated by the Ehrlich method.
The experimental principle is summarized as follows: IDO expression is low in Hela cells under no induction, but a certain concentration of IFN-γ can induces Hela cells to express IDO which catalyzes the conversion of tryptophan to N-formyl kynurenine, which in turn is hydrolyzed by trichloroacetic acid to give kynurenine. Kynurenine then reacts with the Ehrlich reagent to give a color enabling detection of the IDO activity. The absorbance at 490 nm (OD490) is directly proportional to the IDO activity.
A compound was dissolved in DMSO (Sigma, Cat. No. D5879) and diluted to 5 mM, then serially diluted 3-fold with DMSO to a minimum concentration of 2.29 μM, and each concentration point was diluted 50-fold with FBS-free DMEM medium (ThermoFisher, Cat. No. 11995073). If a compound's IC50 value is very low, the initial concentration of the compound was lowered.
Hela cells (ATCC, Cat. No. CCL-2) were cultured in DMEM complete medium containing 10% FBS (GBICO, Cat. No. 10099-141) and 100 U/mL streptomycin mixture (ThermoFisher, Cat. No. 15140122). When covering the culture vessel 80-90%, the cells were digested with 0.25% trypsin (containing EDTA) (ThermoFisher, Cat. No. 25200056) and planted in 96-well plates (Corning, Cat. No. 3599), 20000 cells per well (80 μL of DMEM medium). The plates were then incubated in a 37° C., 5% CO2 incubator overnight (18-20 hours).
After overnight, 10 μL of DMEM-diluted compound and 10 μL of 500 ng/mL of INF-γ were added to each well, and gently mixed and the 96-well plates were placed in a 37° C., 5% CO2 incubator for further culturing. After 24 hours, they were removed and centrifuged at room temperature 2000×g for 5 min, and then the supernatants were transferred to reaction plates (Sigma, Cat. No. CLS3695). One-twentieth of trichloroacetic acid (Sigma, Cat. No. T9159) was added and incubated at 60° C. After 30 min, the reaction plates were centrifuged at room temperature 2000×g for 5 min. The supernatants were transferred to clean reaction plates, an equal volume of the Ehrlich reagent was added, mixed, and incubated at room temperature. After 15 min, OD490 of each well was measured.
In this experiment, OD490 without IFN-γ but with DMEM medium replacement was referred as OD490100% inhibition. OD490 with IFN-γ and 0.2% DMSO was referred as OD4900% inhibition. The percentage of inhibition on the IDO1 activity in Hela cells by a compound was calculated using the following formula: Inhibition %=100−100*(OD490compound−OD490100% inhibition)/(OD4900% inhibition−OD490100% inhibition)
as §1

plasma IDO1 = plasma IDO1 (Mus musculus (Mouse), UniProt P28776); conditions: nude mice, single dose; at the level of IDO-deficient mice; cited from earlier work
CT26 tumors = conditions: repeated doses; cited from earlier work

indoleamine 2,3-dioxygenase (IDO) in Hela cells, sequence (P14902 whole entry): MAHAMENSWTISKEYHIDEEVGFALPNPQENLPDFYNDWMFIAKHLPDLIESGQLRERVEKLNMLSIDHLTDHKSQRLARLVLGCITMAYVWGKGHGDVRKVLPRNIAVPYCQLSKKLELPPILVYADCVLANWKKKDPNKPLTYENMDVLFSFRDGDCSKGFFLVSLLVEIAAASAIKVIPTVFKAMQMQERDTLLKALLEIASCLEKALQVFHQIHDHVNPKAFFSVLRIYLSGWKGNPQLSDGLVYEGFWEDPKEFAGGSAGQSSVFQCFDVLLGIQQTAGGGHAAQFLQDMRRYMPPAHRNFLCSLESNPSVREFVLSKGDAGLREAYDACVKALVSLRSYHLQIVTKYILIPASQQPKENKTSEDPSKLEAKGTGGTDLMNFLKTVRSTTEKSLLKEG
full-length human recombinant IDO1 protein, sequence (P14902 whole entry): as above
plasma IDO1, sequence (P28776 whole entry): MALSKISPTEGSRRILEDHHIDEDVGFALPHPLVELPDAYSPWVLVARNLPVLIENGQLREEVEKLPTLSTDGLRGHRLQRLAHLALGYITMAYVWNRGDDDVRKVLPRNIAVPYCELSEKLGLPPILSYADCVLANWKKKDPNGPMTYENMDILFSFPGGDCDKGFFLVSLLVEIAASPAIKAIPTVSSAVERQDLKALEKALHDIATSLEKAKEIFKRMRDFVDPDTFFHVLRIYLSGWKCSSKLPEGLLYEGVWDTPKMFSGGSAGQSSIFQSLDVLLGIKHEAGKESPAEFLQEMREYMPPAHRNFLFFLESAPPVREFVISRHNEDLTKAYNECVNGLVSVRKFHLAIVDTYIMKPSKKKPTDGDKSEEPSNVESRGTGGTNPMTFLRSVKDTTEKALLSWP

Structure (SMILES)	IC50 [1] [µM]	IC50 [2] [µM]	activity of plasma IDO1 (plasma IDO1)	expansion of CT26 tumors (CT26 tumors)
N#Cc1ccc(NC(=O)Nc2c(Cl)ccc3cncn23)cc1 [Compound 19, 1-(6-chloroimidazo[1,5-a]pyridin-5-yl)-3-(4-cyanophenyl)urea]	< 0.25	1 to 10		
O=C(Cc1c(-c2ccccc2)ccc2cncn12)Nc1cn[nH]c1 [Compound 54, 2-(6-phenylimidazo[1,5-a]pyridin-5-yl)-N-(1H-pyrazol-4-yl)acetamide]	0.25 to 1.5	1 to 10		
N#Cc1ccc(NC(=O)Nc2c(-c3ccc(F)cc3)ccc3cncn23)cc1 [Compound 21, 1-(4-cyanophenyl)-3-(6-(4-fluorophenyl)imidazo[1,5-a]pyridin-5-yl)urea]	0.25 to 1.5	1 to 10		
N#Cc1ccc(NC(=O)Nc2c(C3=CCCC3)ccc3cncn23)cc1 [Compound 24, 1-(4-cyanophenyl)-3-(6-(cyclopent-1-en-1-yl)imidazo[1,5-a]pyridin-5-yl)urea]	< 0.25	1 to 10		
O=C(Cc1c(-c2ccccc2)ccc2cncn12)Nc1cc[nH]n1 [Compound 53, 2-(6-phenylimidazo[1,5-a]pyridin-5-yl)-N-(1H-pyrazol-3-yl)acetamide]	< 0.25	1 to 10		
O=C(Cc1c(-c2ccccc2)ccc2cncn12)Nc1ccc(C(=O)NCCN2CCOCC2)cc1 [Compound 49, N-(2-morpholinoethyl)-4-(2-(6-phenylimidazo[1,5-a]pyridin-5-yl)acetamido)benzamide]	< 0.25	< 1		
NS(=O)(=O)NCCNc1nonc1C(=NO)Nc1ccc(F)c(Br)c1 [INCB-024360]			effectively inhibit the activity of plasma IDO1	prevented the expansion of CT26 tumors
N#Cc1ccc(NC(=O)C(O)c2c(-c3ccccc3)ccc3cncn23)cc1 (stereo not shown) [Compound 64, N-(4-cyanophenyl)-2-hydroxy-2-(6-phenylimidazo[1,5-a]pyridin-5-yl)acetamide]		< 1		

Continued, in another order:

IC50 [1] [µM]	IC50 [2] [µM]	Structure (SMILES)	activity of plasma IDO1 (plasma IDO1)	expansion of CT26 tumors (CT26 tumors)
< 0.25	< 1	N#Cc1ccc(NC(=O)Nc2c(-c3ccccc3F)ccc3cncn23)cc1 [Compound 23, 1-(4-cyanophenyl)-3-(6-(2-fluorophenyl)imidazo[1,5-a]pyridin-5-yl)urea]		
< 0.25	< 1	N#Cc1ccc(NC(=O)Nc2c(-c3ccccc3)ccc3cncn23)cc1 [Compound 17, 1-(4-cyanophenyl)-3-(6-phenylimidazo[1,5-a]pyridin-5-yl)urea]		
< 0.25	< 1	N#Cc1ccc(NC(=O)Cc2c(-c3ccccc3)ccc3cncn23)cc1 [Compound 37, N-(4-cyanophenyl)-2-(6-phenylimidazo[1,5-a]pyridin-5-yl)acetamide]		
	< 1	N#CC1CCC(NC(=O)Nc2c(-c3ccccc3)ccc3cncn23)CC1 (stereo not shown) [Compound 36, 1-(4-cyanocyclohexyl)-3-(6-phenylimidazo[1,5-a]pyridin-5-yl)urea]		
< 0.25	< 1	O=C(Cc1c(-c2ccccc2)ccc2cncn12)Nc1ccc(C(=O)NCCCN2CCOCC2)cc1 [Compound 50, N-(3-morpholinopropyl)-4-(2-(6-phenylimidazo[1,5-a]pyridin-5-yl)acetamido)benzamide]		
< 0.25	< 1	O=C(Cc1c(-c2ccccc2)ccc2cncn12)Nc1ccc(-c2cn[nH]c2)cc1 [Compound 51, N-(4-(1H-pyrazol-4-yl)phenyl)-2-(6-phenylimidazo[1,5-a]pyridin-5-yl)acetamide]		
< 0.25	< 1	N#Cc1ccc(NC(=O)Nc2c(-c3cccc(F)c3)ccc3cncn23)cc1 [Compound 22, 1-(4-cyanophenyl)-3-(6-(3-fluorophenyl)imidazo[1,5-a]pyridin-5-yl)urea]		

Source: patent publication US11046682B2, “Fused heterocyclic derivatives, their preparation methods thereof and medical uses thereof” (Beijing Innocare Pharma Tech Co., Ltd., priority 2016, dated 2021)
